How the values were obtained:
MDA-MB-231 = assay: Cellular ELISA of phage clones; format: binding, human
Protocol: (§1) The selected phages were further identified by ELISA screening. 1×10^4 cells were seeded into each well of 96-well ELISA plates (Falcon, Calif., USA) overnight and were fixed with 2% paraformaldehyde or methanol/acetone (1:1) for 10 min at RT. The plates were washed twice with PBS and were blocked with 1% BSA in PBS (w/v) for 30 min at RT. Then individual phage clones were added and incubated for 1 hr at RT. Following washing three times with PBS, the plates were incubated with horseradish peroxidase (HRP)-conjugated mouse anti-M13 phage antibody (GE Healthcare) at 1:2000 dilution for 1 hr at RT. The plates were washed three times with PBS again, and were subsequently incubated with the peroxidase substrate o-phenylenediamine dihydrochloride (OPD; Sigma) plus H2O2. The reaction was terminated by 3 N HCl, and the absorbance was measured using microplate reader (Model 680, BioRad) at 490 nm. To evaluate the binding activities of the three selected phage clones to various human cancer cell lines, cellular ELISA was performed to detect sixteen types of human cancer cell lines, including A498, HTB-10, B16-F10, SKOV3, PC-3, U2OS, 1112SK, […], SAS, H460, MIA Paca-2, HCT116, HUVAC, CL1-5, Mahlavu, and MDA-MB-231.

H184 = assay: Cellular ELISA of phage clones; format: binding, human
Protocol: as §1

CL1-5 = assay: Cellular ELISA of phage clones; format: binding, human
Protocol: as §1

HUVAC = assay: Cellular ELISA of phage clones; format: binding, human
Protocol: as §1

H460 = assay: Cellular ELISA of phage clones; format: binding, human
Protocol: as §1

MIA Paca-2 = assay: Cellular ELISA of phage clones; format: binding, human
Protocol: as §1

U2OS = assay: Cellular ELISA of phage clones; format: binding, human
Protocol: as §1

PC-3 = assay: Cellular ELISA of phage clones; format: binding, human
Protocol: as §1

Mahlavu = assay: Cellular ELISA of phage clones; format: binding, human
Protocol: as §1

1112SK = assay: Cellular ELISA of phage clones; format: binding, human
Protocol: as §1

SKOV3 = assay: Cellular ELISA of phage clones; format: binding, human
Protocol: as §1

alpha-enolase (ENO1) = target: T1, alpha-enolase (ENO1) (Homo sapiens, UniProt P06733); assay: Flow cytometry binding of HCT74 phage after ENO1 knockdown or overexpression
T1 construct: endogenous in cells; host or cells: HCT116
Text: To further confirm alpha-enolase was the target proteins of the pHCT74 peptide, correlation between the binding activity of HCT74 phage and ENO1 expression was examined. We established stable cell lines expressing shRNAs targeting ENO1 gene (FIG. 4E) and tested the binding activity of HCT74 phage by flow cytometry. The binding activity of HCT74 phage was reduced after ENO1 gene knockdown (FIG. 4F). Instead, after transient overexpression of ENO1 gene, the binding activity of HCT74 phage was increased (FIG. 4G). […] In addition, HCT74 phage specific binding to the alpha enolase protein was also confirmed by direct ELISA assay (FIG. 4H).

HCT116 xenografts = assay: Immunohistochemical localization of phages in xenograft tumor and organs; format: in vivo, mice; details: tumor vs brain, heart, lungs, colon
Protocol: The tissue samples from in vivo phage homing experiment were embedded in frozen blocks. To evaluate the phage distribution in each tissue by immunohistochemistry, the frozen specimens were cut to 8-μm-thick sections and were collected on coated slides. The slides were washed with cold PBS to remove OCT and were fixed with 4% paraformaldehyde for 10 min at RT. To block endogenous peroxidase activity, the slides were soaked with 3% hydrogen peroxide in methanol for 30 min at RT. The nonspecific antibody binding sites were blocked by immersing the section with 1% BSA in PBS for 30 min at RT. The tissue sections were incubated with mouse anti-M13 monoclonal antibody at 1:250 dilution for 1 hr, followed by adding Super Enhancer reagent (Super SENSITIVE™ Polymer HRP Detection System/DAB, BioGenex) for 20 min and Poly-HRP reagent (BioGenex) for 30 min. After washing, the sections were developed with DAB (3,3′-diaminobenzidine) Chromogen (BioGenex) supplemented with Stable DAB buffer. The reaction was stopped by adding PBS. For nuclei staining, the slides were immersed in hematoxylin for 5 min, and were then mounted with mounting solution to terminate the reaction. The images of sections were taken and analyzed using automated acquisition system (TissueGnostics).

[1] = test system: peripheral blood mononuclear cells (PBMC); assay: Flow cytometry binding of phage clones to normal cells; details: human PBMC
Protocol: Cells were grown to 70-80% confluence and were harvested with 10 mM EDTA in PBS. Peripheral blood mononuclear cells were prepared by using Ficoll-Paque Plus density gradient separation. After washing and suspending the cells with FACS buffer (PBS containing 1% fetal bovine serum), the cells were incubated for 1 hr at 4° C. with 5×10^9, 1×10^9 cfu individual phage clones or control phage, respectively. After washing twice with FACS buffer, cells were incubated with mouse anti-M13 monoclonal antibody (GE Healthcare) at 1:2000 dilution for 1 hr followed by 30 min with phycoerythrin (PE)-conjugated goat anti-mouse secondary antibody (Jackson ImmunoResearch) at 1:250 dilution at 4° C. The emission fluorescence signals were measured using FACSCantoll (Becton Dickinson) and were analyzed by FlowJo software.

T1 sequence (P06733 whole entry): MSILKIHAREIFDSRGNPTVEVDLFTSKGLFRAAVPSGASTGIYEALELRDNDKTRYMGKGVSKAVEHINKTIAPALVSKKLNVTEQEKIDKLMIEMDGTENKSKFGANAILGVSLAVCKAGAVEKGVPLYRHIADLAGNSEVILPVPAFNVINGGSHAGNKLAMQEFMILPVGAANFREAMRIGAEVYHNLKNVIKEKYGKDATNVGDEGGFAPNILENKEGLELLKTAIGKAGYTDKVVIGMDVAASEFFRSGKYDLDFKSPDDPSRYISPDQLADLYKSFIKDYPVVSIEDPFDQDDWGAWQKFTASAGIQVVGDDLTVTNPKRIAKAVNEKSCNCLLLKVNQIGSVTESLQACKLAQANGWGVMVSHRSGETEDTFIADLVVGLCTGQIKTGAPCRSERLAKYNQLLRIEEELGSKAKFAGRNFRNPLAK

- binding by cellular ELISA (MDA-MB-231): highly specific binding
- binding by cellular ELISA (H184): highly specific binding
- binding by cellular ELISA (CL1-5): moderate binding
- binding by cellular ELISA (HUVAC): highly specific binding
- binding by cellular ELISA (H460): highly specific binding
- binding by cellular ELISA (MIA Paca-2): highly specific binding
- binding by cellular ELISA (U2OS): highly specific binding
- binding by cellular ELISA (PC-3): highly specific binding
- binding by cellular ELISA (Mahlavu): highly specific binding
- binding by cellular ELISA (1112SK): highly specific binding
- binding by cellular ELISA (SKOV3): highly specific binding
- binding activity after ENO1 gene knockdown (alpha-enolase (ENO1); HCT116 cells with shRNAs targeting ENO1): reduced
- binding activity after transient overexpression of ENO1 gene (alpha-enolase (ENO1); flow cytometry): increased
Sequence: SSMDIVLRAPLM [HCT74]
- phage localization by immunostaining of tissue sections (HCT116 xenografts): selectively localized in tumor tissues
- phage localization by immunostaining of tissue sections (HCT116 xenografts; listed as HCT-74): strong accumulated in the tumor
- binding activity to PBMC (normal cells) by FACS [1]: not to normal cells

Reference: patent US9393316B2, “Cancer targeting peptides for enhancing anti-cancer drug delivery and therapeutic efficiencies” (priority 2014, dated 2016)
